Assay results reported in patent US20240285683A1, “Compositions And Methods For Enhancing Immunotherapy” (The Trustees of Princeton University, priority 2017, published 2024).

System: Naïve CD8+ T cells
Text: Naïve CD8+ T cells were isolated from mouse spleen. Cells were activated at a cell density of 10^6 cells/mL using plate-bound αCD3/αCD28+100 U/mL TL2 in RPMI containing 10% FBS.

In the case of `O=CO` [formate], the “cell size at day 1 post activation” value (1 mM formate in media, from 9.5 μm without formate) is reported as 10.2 μm, the “extent of cells showing cell surface activation markers (CD25+, CD69+)” value (1 mM formate, from 78% without formate) is reported as 88% and the “reduction of NADH concentration” value (formate, p<0.005) is reported as 1.8 fold. The dead cells (growing CD8+ T cells, from 10% without formate) was 5%.
